Among the data in publication PMC10380584, “Functional Characterization of Pheromone Receptors in the Beet Webworm, Loxostege sticticalis (Lepidoptera: Pyralidae)” (Insects, 2023) are EC50 values, retold here.

This assay has as its system T1, LstiPR2/LstiORco.
T1 construct: full-length LstiPR2 (ORF 1263 bp, printed 421 aa) co-expressed with LstiORco (cRNA 1:1) in Xenopus laevis oocytes, pT7Ts vector; cloned from male antennae; with Odorant receptor coreceptor
The assay can be described thus: two-electrode voltage clamp, Xenopus oocytes. As to conditions: agonist; co-expressed with LstiORco; holding potential -80 mV; Ringer's buffer pH 7.6. It counts as cell-based, Loxostege sticticalis. From the text: two-electrode voltage clamp, Xenopus oocytes on LstiPR2/LstiORco | LstiPR2/LstiORco was sensitive to E11-14:OAc

Take `CC/C=C/CCCCCCCCCCOC(C)=O` [E11-14:OAc, (E)-11-tetradecenyl acetate]: the EC50 worked out at 12.5 µM.

As a reminder, the EC50 is the midpoint of the concentration-response curve. Low values mean a more potent agent, high ones a less potent agent.
